In patent publication US9956199B2, “Chromane-like cyclic prenylflavonoids for the medical intervention in neurological disorders” (priority 2011, dated 2018):
“Also recorded” adds a separate entry of the source.

Experiments:
[1] = system: PC12 cells; experiment: PC12 cobalt-chloride stress test, LDH release; type: cell-based, rat; settings: CoCl2 300 μM, 24 hours; compounds 10 μM, NGF 100 ng/ml; FIG. 7B
Description: (§1) For the neuroprotection assay PC12 cells were stressed with cobalt chloride 300 μM for 24 hours and the activity of Caspase 3/7 and LDH release were measured. NGF 50 ng/ml was used as a positive control for Caspase 3/7 activity and NGF 100 ng/ml was used as a positive control for LDH release.
(§2) For the PC12-CoCl2-Assay PC12 cells were used (ATCC: CRL-1721 ™). These cells were growing in RPMI supplemented with 10% Horse Serum (heat inactivated) (Sigma Aldrich, Taufkirchen, Germany), 5% Fetal Bovine Serum (Lonza, Wuppertal, Germany), 2.5% Penicillin/Streptomycin and Glutamine (PAA, Pasching, Austria) as adherent cultures when the plates are coated with Poly-L-ornithine ([…] in water) for at least one hour at 37° C. For passaging PC12-cells were resuspended with Accutase (PAA, Pasching, Austria) for 10 minutes at 37° C. once a week.
(§3) For all experiments cells were plated (quadruplicates) on Poly-L-ornithine-coated 96-well plates at a density of 10^4 cells per well. For Caspase 3/7-measurement cells were seeded in a white 96-well-plate to detect luminescence. As positive-control for neuroprotection Nerve Growth Factor (NGF) (50 ng/ml and 100 ng/ml) was used. To induce hypoxia CoCl2 (300 μM) was added to the cells after 20-24 hours. The control-treatment was compound 1a (ENDF1), compound 1b (ENDF3), compound 3a (ENDF2), ENDF4 or Osajin in the concentrations 1 μM and 10 μM in proliferation-media without CoCl2.
For LDH-release cells were centrifuged at 1050 rpm for 5 minutes. After 24 hours of stimulation, the supernatant was mixed in an equal amount with LDH-substrate and incubated in the dark for 30 minutes. Afterwards stop solution was added and absorbance was measured at 490 nm, the blank-values are subtracted.

[2] = system: chicken dorsal root ganglion neurons; experiment: neurite outgrowth in primary chicken dorsal root ganglion neurons; type: cell-based; settings: E8 and E15 DRG neurons, 12 to 24 hours; compound 1a 10 μM, NGF 20 ng/ml; GAP-43 staining
Description: Dorsal root ganglion neurons comprise of an axon with two branches and are a good model for neuronal differentiation. Embryonic day 8 and 15 chicken dorsal root ganglions were examined for immunochemical staining with GAP43 after incubation with NGF 20 ng/ml and compound 1a (ENDF1) 10 μM to analyze whether compound 1a alone or in combination with the nerve growth factor enhances neurite outgrowth and branching.
Embryonic day (E) 8 and E15 chicken Dorsal Root Ganglions (DRGs) were prepared as described in: Aigner, 1993; Aigner, 1995. Briefly, foetuses were taken out of the egg, decapitated and the DRGs were targeted from the ventral side. The 10 lumbar region DRGs per foetus were dissected, and a total of 100 DRGs were collected in 10 ml DPBS in a 15 ml Falcon tube. DRGs were centrifuged 120×g for 3 min and then enzymatically treated with 1 ml trypsin 0.5 mg/ml+EDTA 0.22 mg/ml (PAA, Pasching, Austria) for 15 min. Then, 9 ml of DMEM 10% FCS were added to inactivate the trypsin and DRGs were centrifuged 120×g for 5 min. DRGs were resuspended and washed with 5 ml of DMEM 10% FCS, pipetted up and down to dissociate them, centrifuged, resuspended in 5 ml of DMEM 10% FCS and transferred into a 60 mm diameter cell culture dish. […]

[3] = system: PC12 cells; experiment: PC12 cobalt-chloride stress test, Caspase 3/7 activation; type: cell-based, rat; settings: CoCl2 300 μM, 24 hours; compounds 10 μM, NGF 50 ng/ml; FIG. 7A
Description: as §1, §2, §3
For Caspase 3/7-activation Caspase 3/7 substrate was added to the cells in an equal amount 22 hours after stimulation. Plates are incubated for 2 hours at room temperature in the dark, luminescence was measured 24 hours after stimulation and the blank-values are subtracted.

Substance: NGF: Nerve Growth Factor, positive control for neuroprotection and neurite outgrowth
- protection from CoCl2 induced LDH release (cell death) [1]: partially protected; also recorded: slightly decrease the LDH release
- neurite extension [2]: strongly promote neurite extension; also recorded: potent enhancer of neuronal differentiation
- protection from CoCl2 induced Caspase 3/7 activity [3]: partially protected; also recorded: inhibits CoCl2 induced Caspase 3/7 activity
